# Laboratory results reported in patent US9328106B2, “Cyclic ether pyrazol-4-yl-heterocyclyl-carboxamide compounds and methods of use” (Genentech, Inc., priority 2012, dated 2016).
# Target: PIM1 (Homo sapiens (Human), UniProt P11309)
# Assay: biochemical
# Assay type: biochemical
# Settings: not given
# Sequence of PIM1 (P11309 whole entry): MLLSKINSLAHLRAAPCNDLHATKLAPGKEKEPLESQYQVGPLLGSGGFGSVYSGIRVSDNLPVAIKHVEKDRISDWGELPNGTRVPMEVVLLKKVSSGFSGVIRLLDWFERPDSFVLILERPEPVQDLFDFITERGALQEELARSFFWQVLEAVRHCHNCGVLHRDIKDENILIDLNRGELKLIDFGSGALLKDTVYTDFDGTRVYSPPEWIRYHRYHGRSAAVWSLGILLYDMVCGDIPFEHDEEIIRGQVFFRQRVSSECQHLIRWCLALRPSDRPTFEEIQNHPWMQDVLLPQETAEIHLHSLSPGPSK
row,Ki [nM],Compound
1,0.135,"[2H]C([2H])([2H])O[C@@H]1CO[C@H](c2c(NC(=O)c3nc(-c4c(F)cccc4F)sc3N)cnn2C)CC[C@H]1N [Example 174, 5-Amino-N-[5-[(2S,5R,6S)-5-amino-6-(trideuteriomethoxy)oxepan-2-yl]-1-methyl-pyrazol-4-yl]-2-(2,6-difluorophenyl)thiazole-4-carboxamide]"

# Same assay, conditions: 20 pM PIM1, 1 μM FAM-peptide, 10 μM ATP, 90 minutes at room temperature; read-out: PIM1 LC3K (KI)
row,Ki [nM],Compound
1,1.87,"CO[C@H]1C[C@H](c2c(NC(=O)c3nc(-c4c(F)cccc4F)sc3N)cnn2C)OCC[C@@H]1N [Example 138, 5-amino-N-(5-((2R,4S,5S)-5-amino-4-methoxyoxepan-2-yl)-1-methyl-1H-pyrazol-4-yl)-2-(2,6-difluorophenyl)thiazole-4-carboxamide]"
2,0.053,"Cn1ncc(NC(=O)c2nc(-c3ccccc3F)sc2N)c1C12CCC(CN)(CC1)O2 [Example 139, 5-amino-N-[5-[1-(aminomethyl)-7-oxabicyclo[2.2.1]heptan-4-yl]-1-methyl-pyrazol-4-yl]-2-(2-fluorophenyl)thiazole-4-carboxamide]"
3,0.469,"Cn1ncc(NC(=O)c2nc(-c3c(F)cccc3F)sc2N)c1C1CC(F)C(N)CCO1 (centres unmarked) [Example 140, 5-amino-N-(5-(5-amino-4-fluorooxepan-2-yl)-1-methyl-1H-pyrazol-4-yl)-2-(2,6-difluorophenyl)thiazole-4-carboxamide]"
4,0.07,"Cn1ncc(NC(=O)c2nc(-c3c(F)cccc3F)sc2N)c1C1C[C@@H](N)[C@H](F)CCO1 (stereo partly drawn) [Example 141, 5-amino-N-(5-((4R,5R)-4-amino-5-fluorooxepan-2-yl)-1-methyl-1H-pyrazol-4-yl)-2-(2,6-difluorophenyl)thiazole-4-carboxamide]"
5,0.441,"CC1C(c2c(NC(=O)c3nc(-c4c(F)cccc4F)sc3N)cnn2C)OCC(C)(O)C1N (centres unmarked) [Example 142, 5-amino-N-[5-(4-amino-5-hydroxy-3,5-dimethyl-tetrahydropyran-2-yl)-1-methyl-pyrazol-4-yl]-2-(2,6-difluorophenyl)thiazole-4-carboxamide]"
6,1.45,"Cn1ncc(NC(=O)c2nc(-c3c(F)cccc3F)sc2N)c1C1CCC(N)COC1 (centres unmarked) [Example 144, 5-amino-N-[5-(6-aminooxepan-3-yl)-1-methyl-pyrazol-4-yl]-2-(2,6-difluorophenyl)thiazole-4-carboxamide]"
7,0.095,"Cn1ncc(NC(=O)c2nc(-c3c(F)cccc3F)sc2N)c1[C@@H]1C[C@H](O)CCO1 [Example 146, 5-amino-2-(2,6-difluorophenyl)-N-(5-((2S,4R)-4-hydroxytetrahydro-2H-pyran-2-yl)-1-methyl-1H-pyrazol-4-yl)thiazole-4-carboxamide]"
8,0.141,"Cn1ncc(NC(=O)c2nc(-c3c(F)cccc3F)sc2N)c1C1CCC(N)COC1 (centres unmarked) [Example 147, 5-amino-N-[5-(6-aminooxepan-3-yl)-1-methyl-pyrazol-4-yl]-2-(2,6-difluorophenyl)thiazole-4-carboxamide]"
9,0.174,"Cn1ncc(NC(=O)c2nc(-c3c(F)cccc3F)sc2N)c1[C@H]1C[C@@H](O)CCO1 [Example 149, 5-amino-2-(2,6-difluorophenyl)-N-(5-((2R,4S)-4-hydroxytetrahydro-2H-pyran-2-yl)-1-methyl-1H-pyrazol-4-yl)thiazole-4-carboxamide]"
10,0.105,"Cn1ncc(NC(=O)c2nc(-c3c(F)cccc3F)sc2N)c1[C@@H]1CC(F)[C@H](N)CCO1 (stereo partly drawn) [Example 150, 5-Amino-N-[5-[(2S,5R)-5-amino-4-fluoro-oxepan-2-yl]-1-methyl-pyrazol-4-yl]-2-(2,6-difluorophenyl)thiazole-4-carboxamide]"
11,0.068,"Cn1ncc(NC(=O)c2nc(-c3c(F)cccc3F)sc2N)c1[C@H]1CC(F)[C@@H](N)CCO1 (stereo partly drawn) [Example 151, 5-Amino-N-[5-[(2R,5S)-5-amino-4-fluoro-oxepan-2-yl]-1-methyl-pyrazol-4-yl]-2-(2,6-difluorophenyl)thiazole-4-carboxamide]"
12,0.031,Cn1ncc(NC(=O)c2nc(-c3c(F)cccc3F)sc2N)c1[C@H]1CC[C@H](N)C(F)(F)CO1 [Example 152]
13,0.114,"Cn1ncc(NC(=O)c2nc(-c3c(F)cccc3F)sc2N)c1[C@H]1CC[C@H](F)[C@@H](N)CO1 [Example 153, 5-Amino-N-[5-[(2R,5S,6S)-6-amino-5-fluoro-oxepan-2-yl]-1-methyl-pyrazol-4-yl]-2-(2,6-difluorophenyl)thiazole-4-carboxamide]"
14,0.107,"Cn1ncc(NC(=O)c2nc(-c3cccc(C(F)(F)F)c3F)sc2N)c1[C@@H]1CC[C@@H](N)[C@H](F)CO1 [Example 156, 5-amino-N-(5-((2S,5R,6S)-5-amino-6-fluorooxepan-2-yl)-1-methyl-1H-pyrazol-4-yl)-2-(2-fluoro-3-(trifluoromethyl)phenyl)thiazole-4-carboxamide]"
15,0.965,"Cn1ncc(NC(=O)c2nc(-c3ccccc3OC(F)(F)F)sc2N)c1[C@@H]1CC[C@@H](N)[C@H](F)CO1 [Example 157, 5-amino-N-(5-((2S,5R,6S)-5-amino-6-fluorooxepan-2-yl)-1-methyl-1H-pyrazol-4-yl)-2-(2-(trifluoromethoxy)phenyl)thiazole-4-carboxamide]"
16,0.019,"Cn1ncc(NC(=O)c2nc(-c3c(F)cccc3F)sc2N)c1[C@H]1C[C@@H](N)CCO1 [Example 159, 5-Amino-N-[5-[(2R,4S)-4-aminotetrahydropyran-2-yl]-1-methyl-pyrazol-4-yl]-2-(2,6-difluorophenyl)thiazole-4-carboxamide]"

row,Ki [nM],Compound
1,0.248,"Cn1ncc(NC(=O)c2nc(-c3c(F)cccc3F)sc2N)c1[C@@H]1C[C@H](N)CCO1 [Example 160, 5-Amino-N-[5-[(2S,4R)-4-aminotetrahydropyran-2-yl]-1-methyl-pyrazol-4-yl]-2-(2,6-difluorophenyl)thiazole-4-carboxamide]"
2,0.025,"CC[C@]1(CO)CO[C@H](c2c(NC(=O)c3nc(-c4c(F)cccc4F)sc3N)cnn2C)OC1 [Example 162, 5-Amino-2-(2,6-difluorophenyl)-N-[5-[5-ethyl-5-(hydroxymethyl)-1,3-dioxan-2-yl]-1-methyl-pyrazol-4-yl]thiazole-4-carboxamide]"
3,1.26,"CC[C@]1(CO)CO[C@@H](c2c(NC(=O)c3nc(-c4c(F)cccc4F)sc3N)cnn2C)OC1 [Example 163, 5-Amino-2-(2,6-difluorophenyl)-N-[5-[5-ethyl-5-(hydroxymethyl)-1,3-dioxan-2-yl]-1-methyl-pyrazol-4-yl]thiazole-4-carboxamide]"
4,0.105,"Cn1ncc(NC(=O)c2nc(-c3c(F)cccc3F)sc2N)c1C1OCC(CO)CO1 (centres unmarked) [Example 164, 5-Amino-2-(2,6-difluorophenyl)-N-[5-[5-(hydroxymethyl)-1,3-dioxan-2-yl]-1-methyl-pyrazol-4-yl]thiazole-4-carboxamide]"
5,0.647,"Cn1ncc(NC(=O)c2nc(-c3c(F)cccc3F)sc2N)c1C1OCC(CO)CO1 (centres unmarked) [Example 165, 5-Amino-2-(2,6-difluorophenyl)-N-[5-[5-(hydroxymethyl)-1,3-dioxan-2-yl]-1-methyl-pyrazol-4-yl]thiazole-4-carboxamide]"
6,0.514,"Cn1ncc(NC(=O)c2nc(-c3c(F)cccc3F)sc2N)c1[C@H]1OC[C@@](C)(CO)CO1 [Example 166, 5-Amino-2-(2,6-difluorophenyl)-N-[5-[5-(hydroxymethyl)-5-methyl-1,3-dioxan-2-yl]-1-methyl-pyrazol-4-yl]thiazole-4-carboxamide]"
7,0.029,"Cn1ncc(NC(=O)c2nc(-c3c(F)cccc3F)sc2N)c1[C@H]1OC[C@H](CN)CO1 [Example 167, 5-Amino-N-[5-[5-(aminomethyl)-1,3-dioxan-2-yl]-1-methyl-pyrazol-4-yl]-2-(2,6-difluorophenyl)thiazole-4-carboxamide]"
8,0.013,"Cn1ncc(NC(=O)c2nc(-c3c(F)cccc3F)sc2N)c1[C@@H]1CC[C@@H](N)C(F)(F)CO1 [Example 168, 5-Amino-N-[5-[(2S,5R)-5-amino-6,6-difluoro-oxepan-2-yl]-1-methyl-pyrazol-4-yl]-2-(2,6-difluorophenyl)thiazole-4-carboxamide]"
9,0.341,"Cn1ncc(NC(=O)c2nc(-c3c(F)cccc3F)sc2N)c1[C@H]1CC[C@H](N)C(F)(F)CO1 [Example 169, 5-Amino-N-[5-[(2R,5S)-5-amino-6,6-difluoro-oxepan-2-yl]-1-methyl-pyrazol-4-yl]-2-(2,6-difluorophenyl)thiazole-4-carboxamide]"
10,0.027,"Cn1ncc(NC(=O)c2nc(-c3c(F)cccc3F)sc2N)c1[C@H]1CC[C@H](CN)O1 [Example 171, 5-Amino-N-[5-[(2R,5R)-5-(aminomethyl)tetrahydrofuran-2-yl]-1-methyl-pyrazol-4-yl]-2-(2,6-difluorophenyl)thiazole-4-carboxamide]"
11,0.15,"Cn1ncc(NC(=O)c2nc(-c3c(F)cccc3F)sc2N)c1[C@@H]1CC[C@@H](CN)O1 [Example 172, 5-Amino-N-[5-[(2S,5S)-5-(aminomethyl)tetrahydrofuran-2-yl]-1-methyl-pyrazol-4-yl]-2-(2,6-difluorophenyl)thiazole-4-carboxamide]"
12,0.015,"CC[C@]1(CN)CO[C@H](c2c(NC(=O)c3nc(-c4c(F)cccc4F)sc3N)cnn2C)OC1 [Example 173, 5-Amino-N-[5-[5-(aminomethyl)-5-ethyl-1,3-dioxan-2-yl]-1-methyl-pyrazol-4-yl]-2-(2,6-difluorophenyl)thiazole-4-carboxamide]"
13,0.036,"Cn1ncc(NC(=O)c2nc(-c3c(F)cccc3F)sc2N)c1[C@H]1OC[C@](C)(CN)CO1 [Example 175, 5-Amino-N-[5-[5-(aminomethyl)-5-methyl-1,3-dioxan-2-yl]-1-methyl-pyrazol-4-yl]-2-(2,6-difluorophenyl)thiazole-4-carboxamide]"
14,0.595,"Cn1ncc(NC(=O)c2nc(-c3c(F)cccc3F)sc2N)c1[C@H]1CC[C@H](N)[C@@H](F)CO1 [Example 176, 5-Amino-N-[5-[(2R,5S,6R)-5-amino-6-fluoro-oxepan-2-yl]-1-methyl-pyrazol-4-yl]-2-(2,6-difluorophenyl)thiazole-4-carboxamide]"
15,0.155,"Cn1ncc(NC(=O)c2nc(-c3c(F)cccc3F)sc2N)c1[C@H]1OC[C@@](C)(CN)CO1 [Example 178, 5-Amino-N-[5-[5-(aminomethyl)-5-methyl-1,3-dioxan-2-yl]-1-methyl-pyrazol-4-yl]-2-(2,6-difluorophenyl)thiazole-4-carboxamide]"
